Experiments:
Type in all cases: biochemical
MMP-8 = biological target: T1, MMP-8 (Homo sapiens, UniProt P22894); assay: In vitro MMP-8 inhibition test
T1 construct: purchased R&D Systems 908-MP
Description: (§1) The MMP-mediated amidolytic cleavage of a suitable peptide substrate leads to an increase in fluorescent light here too. The signal intensity of the fluorescent light is directly proportional to the enzyme activity. The active concentration of a test compound at which half the enzyme is inhibited (50% signal intensity of the fluorescent light) is reported as the IC50 value.
(§2) Recombinant MMP-8 (from R&D Systems, 908-MP) is chemically activated in accordance with the manufacturer's instructions using APMA. 1 μl of the test compound to be analysed (as a solution in DMSO, suitable concentrations, for example, 1 nM to 30 μM) is pipetted into 24 μl of activated enzyme (final concentration, for example, 0.5 nM) in reaction buffer (50 mM Tris/HCl pH 7.5, 10 mM CaCl2, 150 mM NaCl, 0.05% Brij®-35) in a white 384-hole microtiter plate (MTP). The enzymatic reaction is started by adding the intramolecularly quenched Mca-Pro-Leu-Gly-Leu-Dpa(Dnp)-Ala-Arg-NH2 substrate (final concentration, for example, 10 μM; R&D Systems, ES-001), so as to result in a total test volume of 50 μl. The course of the MMP-8 reaction is measured by measuring the fluorescence intensity (excitation 320 nm, emission 410 nm) over a suitable period of time (for example over 120 min at a temperature of 32° C.).

MMP-13 = biological target: T2, MMP-13 (Homo sapiens, UniProt P45452); assay: In vitro MMP-13 inhibition test
T2 construct: purchased R&D Systems 511-MP
Description: as §1
as §2, with “MMP-13” for “MMP-8”, “511-MP)” for “908-MP)”, “0.1” for “0.5”, “50” for “50 μl.”

MMP-3 = biological target: T3, MMP-3 (Homo sapiens, UniProt P08254); assay: In vitro MMP-3 inhibition test
T3 construct: purchased R&D Systems 513-MP
T3 sequence (P08254 100-477): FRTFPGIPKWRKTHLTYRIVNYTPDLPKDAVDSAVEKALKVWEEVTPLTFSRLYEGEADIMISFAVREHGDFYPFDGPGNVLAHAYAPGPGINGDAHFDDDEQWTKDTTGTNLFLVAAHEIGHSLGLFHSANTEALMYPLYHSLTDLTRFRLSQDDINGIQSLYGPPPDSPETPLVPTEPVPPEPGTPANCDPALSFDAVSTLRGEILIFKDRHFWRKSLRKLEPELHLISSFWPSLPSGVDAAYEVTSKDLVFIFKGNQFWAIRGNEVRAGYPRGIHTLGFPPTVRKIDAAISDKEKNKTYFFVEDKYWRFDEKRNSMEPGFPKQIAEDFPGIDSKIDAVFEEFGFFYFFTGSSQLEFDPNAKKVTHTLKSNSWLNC
Description: as §1
as §2, with “MMP-3” for “MMP-8”, “513-MP)” for “908-MP)”, “2” for “0.5”, “Mca-Arg-Pro-Lys-Pro-Val-Glu-Nval-Trp-Arg-Lys(Dnp)-NH2” for “Mca-Pro-Leu-Gly-Leu-Dpa(Dnp)-Ala-Arg-NH2”, “ES-002),” for “ES-001),”, “50” for “50 μl.”

MMP-10 = biological target: T4, MMP-10 (Homo sapiens, UniProt P09238); assay: In vitro MMP-10 inhibition test
T4 construct: purchased R&D Systems 910-MP
T4 sequence (P09238 99-476): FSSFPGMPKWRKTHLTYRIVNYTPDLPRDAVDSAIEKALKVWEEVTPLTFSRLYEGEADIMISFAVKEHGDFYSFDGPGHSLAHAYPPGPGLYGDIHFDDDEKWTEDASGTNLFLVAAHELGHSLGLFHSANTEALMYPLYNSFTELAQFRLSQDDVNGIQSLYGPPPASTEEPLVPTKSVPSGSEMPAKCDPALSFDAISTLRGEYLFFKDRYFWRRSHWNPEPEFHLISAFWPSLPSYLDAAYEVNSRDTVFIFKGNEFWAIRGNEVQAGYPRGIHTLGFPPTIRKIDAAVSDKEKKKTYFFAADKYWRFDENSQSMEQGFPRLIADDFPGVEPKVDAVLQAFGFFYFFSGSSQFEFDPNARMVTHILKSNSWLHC
Description: as §1
as §2, with “MMP-10” for “MMP-8”, “910-MP)” for “908-MP)”, “2” for “0.5”, “Mca-Arg-Pro-Lys-Pro-Val-Glu-Nval-Trp-Arg-Lys(Dnp)-NH2” for “Mca-Pro-Leu-Gly-Leu-Dpa(Dnp)-Ala-Arg-NH2”, “ES-002),” for “ES-001),”

MMP-16 = biological target: T5, MMP-16 (Homo sapiens, UniProt P51512); assay: In vitro MMP-16 inhibition test
T5 construct: purchased R&D Systems 1785-MP
T5 sequence (P51512 120-564 limits assumed): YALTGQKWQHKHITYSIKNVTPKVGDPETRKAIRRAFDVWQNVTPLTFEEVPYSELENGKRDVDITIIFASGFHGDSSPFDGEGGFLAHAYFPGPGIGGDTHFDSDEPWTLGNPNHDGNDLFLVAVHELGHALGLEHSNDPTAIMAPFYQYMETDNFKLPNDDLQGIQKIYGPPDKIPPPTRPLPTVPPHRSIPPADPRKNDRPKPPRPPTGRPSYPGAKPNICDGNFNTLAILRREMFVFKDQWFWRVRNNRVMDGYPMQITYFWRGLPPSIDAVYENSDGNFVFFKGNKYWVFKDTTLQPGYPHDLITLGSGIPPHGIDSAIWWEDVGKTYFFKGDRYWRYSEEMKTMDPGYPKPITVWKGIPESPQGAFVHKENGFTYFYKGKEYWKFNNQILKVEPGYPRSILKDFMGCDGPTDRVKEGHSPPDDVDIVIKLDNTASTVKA
Description: as §1
Recombinant MMP-16 (from R&D Systems, 1785-MP) is enzymatically activated in accordance with the manufacturer's instructions using recombinant furin (from R&D Systems, 1503-SE). 1 μl of the test compound to be analysed (as a solution in DMSO, suitable concentrations e.g. 1 nM to 30 μM) is pipetted into 24 μl of activated enzyme (final concentration e.g. 1 nM) in reaction buffer (50 mM Tris/HCl pH 7.5, 10 mM CaCl2, 150 mM NaCl, 0.05% Brij®-35) in a white 384-hole microtiter plate (MTP). The enzymatic reaction is started by adding the intramolecularly quenched Mca-Lys-Pro-Leu-Gly-Leu-Dpa(Dnp)-Ala-Arg-NH2 substrate (final concentration, for example, 5 μM; R&D Systems, ES-010), so as to result in a total test volume of 50 The course of the MMP-16 reaction is measured by measuring the fluorescence intensity (excitation 320 nm, emission 410 nm) over a suitable period of time (for example over 120 min at a temperature of 32° C.).

T1 sequence (P22894 101-467): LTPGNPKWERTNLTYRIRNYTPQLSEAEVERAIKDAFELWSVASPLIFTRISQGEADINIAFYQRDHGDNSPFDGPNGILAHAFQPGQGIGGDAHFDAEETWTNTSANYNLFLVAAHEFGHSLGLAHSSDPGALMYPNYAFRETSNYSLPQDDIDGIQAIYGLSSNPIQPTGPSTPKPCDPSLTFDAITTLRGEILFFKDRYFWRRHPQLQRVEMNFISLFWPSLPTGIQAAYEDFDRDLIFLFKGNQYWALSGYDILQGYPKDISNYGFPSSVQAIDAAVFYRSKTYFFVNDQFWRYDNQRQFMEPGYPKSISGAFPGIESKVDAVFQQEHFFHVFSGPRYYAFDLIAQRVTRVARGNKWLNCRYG

Row | Compound | IC50 (MMP-8) | IC50 (MMP-13) | IC50 (MMP-3) | IC50 (MMP-10) | IC50 (MMP-16)
1 | O=C(O)[C@@H]1[C@@H](Cn2nnc3ccc(C(F)(F)F)cc3c2=O)CC[C@H]1C(=O)c1ccc(OCc2cccc(C(F)(F)F)c2)cc1 (single isomer, unassigned) [Example 19, (+)-(1RS,2SR,5RS)-2-{[4-Oxo-6-(trifluoromethyl)-1,2,3-benzotriazin-3(4H)-yl]methyl}-5-(4-{[3-(trifluoromethyl)benzyl]oxy}benzoyl)cyclopentanecarboxylic acid] | 130 nM | 2600 nM | 3000 nM | 270 nM | 5400 nM
2 | O=C(O)[C@@H]1[C@@H](Cn2nnc3ccc(C(F)(F)F)cc3c2=O)CC[C@H]1C(=O)c1ccc(OCc2cccc(Cl)c2)cc1 (single isomer, unassigned) [Example 23, (+)-(1RS,2RS,5SR)-2-{4-[(3-Chlorobenzyl)oxy]benzoyl}-5-{[4-oxo-6-(trifluoromethyl)-1,2,3-benzotriazin-3(4H)-yl]methyl}cyclopentanecarboxylic acid] | 56 nM | 1500 nM | 540 nM | 87 nM | 2200 nM
3 | O=C(O)[C@@H]1[C@@H](Cn2nnc3ccc(C(F)(F)F)cc3c2=O)CC[C@H]1C(=O)c1ccc(OCc2ccc(Cl)cc2)cc1 (single isomer, unassigned) [Example 25, (+)-(1RS,2RS,5SR)-2-{4-[(4-Chlorobenzyl)oxy]benzoyl}-5-{[4-oxo-6-(trifluoromethyl)-1,2,3-benzotriazin-3(4H)-yl]methyl}cyclopentanecarboxylic acid] | 0.79 nM | 45 nM | 63 nM | 19 nM | 290 nM
4 | O=C(O)[C@@H]1[C@@H](Cn2nnc3ccc(C(F)(F)F)cc3c2=O)CC[C@H]1C(=O)c1ccc(OCc2cccc(N3CCOC3=O)c2)cc1 (single isomer, unassigned) [Example 35, (+)-(1RS,2RS,5SR)-2-(4-{[3-(2-Oxo-1,3-oxazolidin-3-yl)benzyl]oxy}benzoyl)-5-{[4-oxo-6-(trifluoromethyl)-1,2,3-benzotriazin-3(4H)-yl]methyl}cyclopentanecarboxylic acid] | 2 nM | 53 nM | 400 nM | 53 nM | 300 nM
5 | O=C(O)[C@@H]1[C@@H](Cn2nnc3ccc(C(F)(F)F)cc3c2=O)CC[C@H]1C(=O)c1ccc(OCC2CCCCC2)cc1 (single isomer, unassigned) [Example 41, (+)-(1RS,2RS,5SR)-2-[4-(Cyclohexylmethoxy)benzoyl]-5-{[4-oxo-6-(trifluoromethyl)-1,2,3-benzotriazin-3(4H)-yl]methyl}cyclopentanecarboxylic acid] | 1.6 nM | 110 nM | 41 nM | 20 nM | 270 nM
6 | O=C(O)[C@@H]1[C@@H](Cn2nnc3ccc(C(F)(F)F)cc3c2=O)CC[C@H]1C(=O)c1ccc(OCC2CCCC2)cc1 (single isomer, unassigned) [Example 44, (+)-(1RS,2RS,5SR)-2-[4-(Cyclopentylmethoxy)benzoyl]-5-{[4-oxo-6-(trifluoromethyl)-1,2,3-benzotriazin-3(4H)-yl]methyl}cyclopentanecarboxylic acid] | 1.1 nM | 58 nM | 140 nM | 28 nM | 100 nM
7 | O=C(O)[C@@H]1[C@@H](Cn2nnc3ccc(C(F)(F)F)cc3c2=O)CC[C@H]1C(=O)c1ccc(OCCC2CCCCC2)cc1 (single isomer, unassigned) [Example 52, (+)-(1RS,2RS,5SR)-2-[4-(2-Cyclohexylethoxy)benzoyl]-5-{[4-oxo-6-(trifluoromethyl)-1,2,3-benzotriazin-3(4H)-yl]methyl}cyclopentanecarboxylic acid] | 38 nM | 1600 nM | 380 nM | 52 nM | 4600 nM
8 | O=C(O)[C@@H]1[C@@H](Cn2nnc3ccc(C(F)(F)F)cc3c2=O)CC[C@H]1C(=O)c1ccc(OCCC2CCCC2)cc1 (single isomer, unassigned) [Example 55, (+)-(1RS,2RS,5SR)-2-[4-(2-Cyclopentylethoxy)benzoyl]-5-{[4-oxo-6-(trifluoromethyl)-1,2,3-benzotriazin-3(4H)-yl]methyl}cyclopentanecarboxylic acid] | 30 nM | 1700 nM | 440 nM | 50 nM | 5100 nM
9 | CCCCCCOc1ccc(C(=O)[C@@H]2CC[C@H](Cn3nnc4ccc(C(F)(F)F)cc4c3=O)[C@H]2C(=O)O)cc1 (single isomer, unassigned) [Example 58, (+)-(1RS,2RS,5SR)-2-[4-(Hexyloxy)benzoyl]-5-{[4-oxo-6-(trifluoromethyl)-1,2,3-benzotriazin-3(4H)-yl]methyl}cyclopentanecarboxylic acid] | 16 nM | 440 nM | 300 nM | 29 nM | 2300 nM
10 | CCCCOc1ccc(C(=O)[C@@H]2CC[C@H](Cn3nnc4ccc(C(F)(F)F)cc4c3=O)[C@H]2C(=O)O)cc1 (single isomer, unassigned) [Example 67, (+)-(1RS,2RS,5SR)-2-(4-Butoxybenzoyl)-5-{[4-oxo-6-(trifluoromethyl)-1,2,3-benzotriazin-3(4H)-yl]methyl}cyclopentanecarboxylic acid] | 1.6 nM | 270 nM | 140 nM | 14 nM | 180 nM
11 | O=C(O)[C@@H]1[C@@H](Cn2nnc3ccc(C(F)(F)F)cc3c2=O)CC[C@H]1C(=O)c1ccc(SCc2ccccc2)cc1 (single isomer, unassigned) [Example 75, (+)-(1RS,2RS,5SR)-2-[4-(Benzylsulphanyl)benzoyl]-5-{[4-oxo-6-(trifluoromethyl)-1,2,3-benzotriazin-3(4H)-yl]methyl}cyclopentanecarboxylic acid] | 74 nM | 2300 nM | 170 nM | 57 nM | 3600 nM

— patent US20170022171A1, “2,5-DISUBSTITUTED CYCLOPENTANECARBOXYLIC ACIDS AND THEIR USE” (Bayer Pharma Aktiengesellschaft, priority 2014, published 2017)
